Key:
[1] = test system: natural bovine respiratory disease (BRD); assay: Natural bovine respiratory disease study, treatment failure; type: in vivo, beef calves; conditions: dosed on arrival to the feedlot, 14-day observation
Method: The primary clinical endpoint for efficacy was treatment failure/success over a 14-day observation period. Clinically normal beef calves (150-200 kg) at moderate risk for BRD were dosed on arrival to the feedlot. Animals (N=114/group) received saline (T01), 5 mg/kg M9 (T02) or 10 mg/kg M9 (T03); or Zactran (T04).

[2] = test system: lung tissue gene expression, upstream regulators; assay: Lung tissue RNA sequence analysis with ingenuity pathway analysis, murine P. multocida challenge; type: in vivo, mice; conditions: M9 32 mg/kg
Method: In one murine P. multocida intranasal challenge study, mice were administered tulathromycin (16 mg/kg; T02), M9 (32 mg/kg; T03), or ceftiofur (9 mg/kg; T04) by subcutaneous injection 18 hours after bacterial challenge (5×10^3 CFU/mouse) for lung tissue RNA sequence analysis. Survival at Day 7 was about 80%, 50%, and 90% for T02, T03, and T04, respectively, compared to placebo at 0%. Differential gene expression from total lung tissue RNA sequence analysis indicated at least 226 unique genes were up or down regulated (with significance) for T03. Output from ingenuity pathway analysis of these unique genes predicted major upstream regulators of the involved pathways. Data was analyzed based on the number of genes being modulated in the same direction that were associated with a given upstream regulator. An activation z-score of 2 or greater is considered significant and the direction change is indicated by + (activated) or -(inhibited). The top 5 pathways included: IL-9 signaling, glucocorticoid receptor signaling, prolactin signaling, JAK STAT signaling, and IL-17 signaling. The top 6 upstream regulators (activation z-score) included: lipopolysaccharide (−6.725), TNF (−4.669), IFNγ (−5.759), IL-1β (−5.947), STAT1 (−2.787), and poly rl: rC-RNA (−5.289). Even though this study was run in the murine model, the top upstream regulators identified as being modulated by M9 include an almost ubiquitous overlap with the pathways identified in the natural disease study as being key mediators in BRD, and therefore is modulating highly relevant pathways in BRD pathobiology.

[3] = test system: IL-6; assay: IL-6 biomarker in bovine M. haemolytica challenge; type: in vivo
Method: Cytokine Detection—An MSD U-Plex cytokine assay was developed following the MSD U-Plex protocol guide and included biotinylated capture antibodies against: bovine Interleukin (IL)-1β (Biorad), bovine IL-6 (R&D Systems) and bovine tumor necrosis factor (TNF)-α (R&D Systems). The anti-IL-1β antibody was biotinylated using EZ-Link Sulfo-NHS-Biotin (Thermo Scientific) at a challenge ratio of 1:20 according to manufacturer instructions. Assay calibrators (Kingfisher) were diluted to a concentration of […] in control lithium heparin plasma, followed by 4-fold serial dilutions into plasma. The detection antibodies were sulfo-tagged following the MSD quick guide conjugation protocol using a challenge ratio of 1:20. Antibodies were used at the following concentrations: anti-IL-1β at 1 μg/mL, anti-IL-6 at 1 μg/mL and anti-TNF-α at 0.5 μg/mL. Cytokines were quantified according to manufacturer's instructions using a chemiluminescent readout. In brief, 0.5 mL of all biotinylated antibodies were diluted to 10 μg/mL with Diluent 100 and paired to their respective linkers by adding 750 μL of supplied Linker solution and incubated for 30 minutes followed by addition of Stop solution for another 30 minutes. […] Plates were washed a further three times before addition of 150 μL 2X Read buffer and read immediately on the SI6000 instrument (MSD). […]

SMILES: CCCNC[C@]1(O)[C@H](C)O[C@@H](O[C@H]2[C@H](C)[C@@H](O[C@@H]3O[C@H](C)C[C@H](NC)[C@H]3O)[C@](C)(O)C[C@@H](C)CN[C@H](C)[C@@H](O)[C@](C)(O)[C@@H](CC)OC(=O)[C@@H]2C)C[C@@]1(C)OC [Example M9, (2R,3S,4R,5R,8R,10R,11R,12S,13S,14R)-2-ethyl-3,4, 10-trihydroxy-13-(((2R,4R,5S,6S)-5-hydroxy-4-methoxy-4,6-dimethyl-5-((propylamino)methyl)-tetrahydro-2H-pyran-2-yl)oxy)-11-(((2S,3R,4S,6R)-3-hydroxy-6-methyl-4-(methylamino)tetrahydro-2H-pyran-2-yl)oxy)-3,5,8,10,12,14-hexamethyl-1-oxa-6-azacyclopentadecan-15-one]
- Percent failure ([1]; 5 mg/kg): 19.3%
- Percent failure ([1]; 10 mg/kg): 8.8%
- unique genes up or down regulated (with significance) ([2]; total lung tissue RNA sequence analysis): at least 226
- activation z-score, upstream regulator IFNγ ([2]; − = inhibited): −5.759
- activation z-score, upstream regulator IL-1β ([2]; − = inhibited): −5.947
- activation z-score, upstream regulator STAT1 ([2]; − = inhibited): −2.787
- activation z-score, upstream regulator TNF ([2]; − = inhibited): −4.669
- activation z-score, upstream regulator lipopolysaccharide ([2]; − = inhibited): −6.725
- activation z-score, upstream regulator poly rl: rC-RNA ([2]; − = inhibited): −5.289
- IL-6 levels [3]: significantly reduced IL-6 levels

— US20250236616A1, “IMMUNOMODULATING AZALIDES” (Zoetis Services LLC, priority 2021, published 2025)
